Structures can show the parent of a compound that is named as a salt. Where two headings read alike, the source gives them in different places.
Tests used:
[1] = Preliminary toxicity in the mouse; details: in vivo, po, read-out: Prel. tox mouse
Experimental: Representative compounds of formula I of the invention were tested for their gastric acid secretion-inhibiting activity, for their anti-ulcer activity, as well as for their toxicity.
In Table I, which follows, the names of the compounds tested as well as the results of the testing for their gastric secretion-inhibiting activity, for their anti-ulcer activity and for their toxicity are given.

[2] = system: acid secretion caused by 4-methylhistamine dihydrochloride; experiment: Heidenhain test (gastric pouch dogs, inhibition of 4-methylhistamine-stimulated acid secretion); type: in vivo, dog; details: 50% inhibition of acid secretion caused by 4-methylhistamine dihydrochloride infusion; for ED50: Canis lupus familiaris, po, read-out: Heidenhain test ED 50
Experimental: The two experimental procedures described hereinafter were used to determine the gastric acid secretion-inhibiting activity: Heidenhain test A part of the stomach fundus of female and male dogs is separated from the remaining stomach in the form of a pouch according to the […] technique [described by Rudick et al. in J. Surgical Research 7, 383-398 (1967)]. In the pouch there is fitted a steel cannula which is conducted externally through the abdominal wall. The secretion experiments are commenced after about 6 weeks. Before each experiment the animals receive no food for 18 hours, but receive water ad libitum. They are conscious during the experiment. A saphenous vein is cannulated for an infusion of 4-methylhistamine dihydrochloride, a selective stimulator of the histamine H2 -receptors. An appropriate infusion rate of the 4-methylhistamine dihydrochloride ([…], intravenously) is ascertained for each animal in preliminary experiments. During the entire main experiment the gastric secretion is stimulated by the infusion of 4-methylhistamine dihydrochloride, and 15 minute fractions of the gastric juice are collected continuously. As soon as volume and pH of these fractions show constant values, the test substances are administered orally. The ED 50 is defined as that dosage of test substance which brings about a 50% inhibition of the acid secretion caused by 4-methylhistamine dihydrochloride in the treated animals compared with the controls.

ulcers of the duodenum = experiment: Anti-ulcer activity (ulcers of the duodenum induced by 4-methylhistamine and carbachol in guinea pigs); type: in vivo, guinea pig; details: i.g.; for ED50: Cavia porcellus, po, read-out: Anti-ulcer ED 50
Experimental: Before the beginning of the testing a group of 10 guinea pigs, body weight 280 to 320 g, of the same sex receives no food for 24 hours, but receives water ad libitum. Various doses of the test substance or of the appropriate vehicle (control) are administered intragastrically. The test is repeated on different days with other groups of guinea pigs in order to avoid the influence of daily variations.

gastric acid secretion = experiment: Shay test (pylorus-ligated rats, gastric acid secretion-inhibiting activity); type: in vivo, rat; details: female rats, i.d.; for ED50: Rattus norvegicus, 4 h
Experimental: The two experimental procedures described hereinafter were used to determine the gastric acid secretion-inhibiting activity: Shay test The pylorus of female rats, which had received no food for 24 hours but which had received water ad libitum, is ligatured under slight ether narcosis in accordance with Shay et al. [Gastroenterology 5, 43 (1945)]. Immediately thereafter the substances to be tested are administered intraduodenally to the animals. Four (4) hours later the animals are killed. The volume and the acidity of their gastric juice are determined and the values obtained are compared with those of control animals which were treated similarly, but had received no test substance. The ED 50 is defined as the dosage of test substance which brings about a 50% reduction of volume or acidity of the gastric juice in the treated animals compared with the control animals.

[3] = 50% reduction of acidity of gastric juice, read-out: Shay test ED 50 Acid
[4] = 50% reduction of volume of gastric juice, read-out: Shay test ED 50 Vol

Cc1ccc(CSc2nc3cc4c(cc3[nH]2)CCC4)nc1.Cl.Cl [1,5,6,7-tetrahydro-2-[[(5-methyl-2-pyridyl)methyl]thio]indeno(5,6-d)imidazole dihydrochloride]
LD50 [1]: 1250 mg/kg | ED50 [2]: 3.6 mg/kg | ED50 (ulcers of the duodenum): 34 mg/kg | ED50 (gastric acid secretion; [3]): 28 mg/kg | ED50 (gastric acid secretion; [4]): 50 mg/kg

CC1(C)C(=O)C(C)(C)c2cc3[nH]c(SCc4ccccn4)nc3cc21 [5,7-dihydro-5,5,7,7-tetramethyl-2-[(2-pyridylmethyl)thio]indeno(5,6-d)imidazol-6(1H)-one]
LD50 [1]: 2500 mg/kg | ED50 [2]: 5.5 mg/kg | ED50 (ulcers of the duodenum): 32 mg/kg | ED50 (gastric acid secretion; [3]): 9 mg/kg | ED50 (gastric acid secretion; [4]): 20 mg/kg

c1ccc(CSc2nc3cc4c(cc3[nH]2)OCO4)nc1 [6-[(2-Pyridylmethyl)thio]-5H-1,3-dioxolo(4,5-f)-benzimidazole.2HCl]
LD50 [1]: 1250 mg/kg | ED50 [2]: 2.6 mg/kg | ED50 (ulcers of the duodenum): 17 mg/kg | ED50 (gastric acid secretion; [3]): 29 mg/kg | ED50 (gastric acid secretion; [4]): 35 mg/kg

Cc1ccc(CSc2nc3cc4c(cc3[nH]2)OCO4)nc1 [6-[[(5-Methyl-2-pyridyl)-methyl]thio]-5H--1,3-dioxolo-(4,5-f)benzimidazole dihydrochloride]
Heidenhain test ED 50 ([2]; p.o., dihydrochloride): 2.1 mg/kg | Anti-ulcer ED 50 (ulcers of the duodenum; dihydrochloride): 25 mg/kg | Shay test ED 50 Acid (gastric acid secretion; 4 hours, 50% reduction of acidity of gastric juice, dihydrochloride, 240 min): 65 mg/kg | Shay test ED 50 Vol (gastric acid secretion; 4 hours, 50% reduction of volume of gastric juice, dihydrochloride, 240 min): 75 mg/kg

Cc1ccc(C[S+]([O-])c2nc3cc4c(cc3[nH]2)OCO4)nc1 (stereo not shown) [6-[[(5-methyl-2-pyridyl)methyl]sulfinyl]-5H-1,3-dioxolo(4,5-f)-benzimidazole]
LD50 [1]: 5000 mg/kg | ED50 [2]: 2.3 mg/kg | ED50 (ulcers of the duodenum): 14 mg/kg | ED50 (gastric acid secretion; [3]): 28 mg/kg | ED50 (gastric acid secretion; [4]): 65 mg/kg

Cc1ccc(CSc2nc3cc4c(cc3[nH]2)OCO4)nc1 [6-[[(5-methyl-2-pyridyl)methyl]thio]-5H-1,3-dioxolo(4,5-f)benzimidazole]
ED50 [2]: 1.8 mg/kg | ED50 (ulcers of the duodenum): 18 mg/kg | ED50 (gastric acid secretion; [3]): 100 mg/kg | ED50 (gastric acid secretion; [4]): 100 mg/kg
